The values that follow come from US10105380B2, “Glycoclusters and their pharmaceutical use as antibacterials” (priority 2013, dated 2018).

Values after ≈ are worked out from the molar mass of the structure shown. Like-named read-outs stand apart in the source and are kept apart here.

In experiment [1] the target is T1, PA-IL (Pseudomonas aeruginosa, UniProt Q05097). Briefly: Hemagglutination inhibition assay (HIA), rabbit erythrocytes. Format: cell-based. The procedure:
The binding of PA-IL to galactoclusters was probed as the ability of the clusters to inhibit the binding of PA-IL to rabbit erythrocytes (Hemagglutination inhibition assay, HIA) or to surface bound galactosyl modified polyacrylamide either by Surface Plasmon Resonance (SPR), Enzyme Linked Assay (ELLA) Inhibition was measured with competitive assays. In HIA experiments, the minimal inhibitory concentration (MIC) is the minimal concentration of galactocluster that inhibit the hemagglutination of rabbit erythrocytes in presence of the lectin. The lower the MIC the highest is the binding of the galactocluster to the lectin. SPR and ELLA were used to determine the IC50 value. […] The lower the IC50 value as determined by SPR (^SPRIC50) and ELLA (^ELLAIC50), the higher is the binding of PA-IL to the galactocluster.
Hemagglutination inhibition assays (HIA) were performed in U-shaped 96-well microtitre plates. Rabbit erythrocytes were purchased from Biomérieux and used without further washing. Erythrocytes were diluted to a 8% solution in NaCl (100 mM). PA-IL solutions of 3 μM were prepared in TRIS-HCl 20 mM (TRIS=tris(hydroxymethyl)aminomethane), NaCl 100 mM, and CaCl2 100 mM. The hemagglutination unit (HU) was first obtained by addition of the 4% erythrocyte solution (50 μL) to aliquots (50 μL) of sequential (twice) lectin dilutions. The mixture was incubated at 25° C. for 30 min. The HU was measured as the minimum lectin concentration required to observe hemagglutination. For the following lectin-inhibition assays, lectin concentrations of 4 HU were used. […] Subsequent inhibition assays were then carried out by the addition of lectin solution (25 μL, at the required concentration) to sequential dilutions (50 μL) of glycoclusters, monomer molecules, and controls. These solutions were incubated at 37° C. for 30 min, then 8% erythrocyte solution (25 μL) was added, followed by an additional incubation at 37° C. for 1 h. The minimum inhibitory concentration for each molecule was determined for each duplicate.

Experiment [2] concerns the target T1, PA-IL. In kind it is binding. The note with it: potency in respect with GalOMe (ITC Kd).
Description: Recombinant lyophilized PA-IL was dissolved in buffer (0.1 M TRIS-HCl, 6 μM CaCl2, pH 7.5) and degassed. […] ITC was performed using a VP-ITC MicroCalorimeter from MicroCal Incorporated. PA-IL was placed into the1.4478 mL sample cell, at 25° C. Titration was performed with 10 μL injections of carbohydrate ligands every 300 s. Data were fitted using the “one-site model” using MicroCal Origin 7 software according to standard procedures. Fitted data yielded the stoichiometry (n), the association constant (Ka), and the enthalpy of binding (ΔH). Other thermodynamic parameters (i.e., changes in free energy ΔG and entropy ΔS) were calculated from the equation ΔG=ΔH−TΔS=−RTlnKa in which T is the absolute temperature and R=8.314 J·mol^−1·K^−1. Two or three independent titrations were performed for each ligand tested.
The target of experiment [3] is T1, PA-IL. In kind it is binding. The note with it: for Potency vs EG3-O-Gal: ratio of IC50Lac to mono EG3-O-galactose (entry 1); for Potency vs AcNPhe-O-Gal: ratio of IC50Lac to mono-aromatic galactose 31 (entry 2). The method, then: IC50 Determination with “on Chip” Biological Recognition
Lectin PA-IL (0.12 μM final concentration), BSA (2% final concentration) and CaCl2 (1 μg/mL final concentration) was diluted in PBS1× (pH=7.4). In each micro tube was added the inhibitor lactose at the desired final concentration (0; 1.10^−5; 1.10^−4; 5.10^−4; 1.10^−3; 5.10^−3; 1.10^−2; 5.10^−2; 0.1; 1; 5; 10; 50; 10^2; 5.10^2; 10^3; 5.10^3; 10^4; 10^5; 3.10^5).
2 μL of each solution were deposited in the corresponding microwells and the slide was incubated at 37° C. in a water vapor saturated chamber for 3 h. The washing steps are: PBS-Tween0.2% 5 min at 4° C., then briefly in deionized water and dried by centrifugation.
Slide was scanned at 532 nm then at 635 nm with the Microarray scanner, GenePix 4100A software package (Axon Instruments; λex 532/635 nm and λem 575/670 nm). The fluorescence signal of each conjugate was determined as the average of the mean fluorescence signal of sixty-four spots.
IC50 values were determined using “BioDataFit 1.02 program”. The model chosen was “Sigmoidal”: Y=a+(b−a)/[1+10^(x−c)]
with a=FImin, b=FImax, x=[…] and c=log(IC50). FImin/max is the minimum/maximum Alexa-647 fluorescence signal observed for a galactomimetic.
So the IC50 value was called IC50Lac.

In experiment [4] the target is T1, PA-IL. Briefly: DDI glycoarray, direct fluorescence scanning with Alexa647-PA-IL. Format: binding. The settings on record: result in words.
In experiment [5] the target is T1, PA-IL. Briefly: Kd determination on DDI microarray (Langmuir isotherm, Scatchard plot). Format: binding. The note with it: text b577, microarray, Langmuir isotherm. The method, then:
The methodologies for Kd and IC50 value determination have been previously reported (Gerland, B. et al., (2012) Bioconjugate Chem. 23, 1534-1547; Zhang, J. et al., (2009) Chem. Comm., 6795-6797; Zhang, J. et al., (2009) Biosens. Bioelectron. 24, 2515-2521).
CaCl2 (1 μg/mL final concentration) was added. PA-IL at the desired final concentration was then added. 2 μL of each solution (corresponding to the desired PA-IL concentration) were poured in the corresponding microwells. The slide was incubated (3 h, 37° C.) in a water vapor saturated chamber and finally washed in PBS-Tween 20 (0.02%, 5 min, 4° C.) and dried. A Microarray scanner, GenePix 4100A software package (Axon Instruments; λex 532/635 nm and λem 575/670 nm) was used for fluorescent imaging of both fluorophore (Cy3 and Alexa 647). The average of the mean fluorescence signal was calculated from eight spots. The resulting Langmuir Isotherms were linearised using Scatchard plot to give the Kd values at the ordonnate intercept.

T1 sequence (Q05097 2-122): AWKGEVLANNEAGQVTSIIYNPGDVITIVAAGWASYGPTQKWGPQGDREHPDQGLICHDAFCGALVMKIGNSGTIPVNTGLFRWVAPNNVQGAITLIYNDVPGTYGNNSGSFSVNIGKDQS

`CO[C@@H]1O[C@H](CO)[C@H](O)[C@H](O)[C@H]1O` [Gal-OMe, 1-O-Methyl-β-D-galactoside] returned an MIC on PA-IL [1] (minimal inhibitory concentration of hemagglutination, PA-IL 3 μM) of 16 mM (≈ 3110 µg/mL). The βAr at PA-IL [1] (ratio of MIC of Gal-OArNO2 over MIC of the molecule) was 0.13. Moreover, the βMe at PA-IL [1] (ratio of MIC of Gal-OMe over MIC of the molecule) is given as 1.0; at PA-IL [2], 1.
Man(HexTzM-Gal)4 [compound 18]: the IC50 on PA-IL [3] (lactose concentration required to displace 50% of PA-IL from the glycocluster, higher = better binding, read-out: IC50Lac) is 107 µM. Further, on PA-IL [3], the “Potency vs EG3-O-Gal” value worked out at 21 and the “Potency vs AcNPhe-O-Gal” value is on record as 6.7. In addition, the “binding to PA-IL on microarray” value at PA-IL [4] is “high binding”.
Man(POProTzAcNPhe-O-Gal)4 [17d]: on PA-IL [5], the Kd – broadly, the constant that tells how readily two partners part at equilibrium – was determined as 0.196 µM. For the same compound, the β at PA-IL [3] (Table 6, relative potency vs monovalent ligand 31) was 177. In addition, at PA-IL [3], the “Potency vs EG3-O-Gal” value was 565 and the “Potency vs AcNPhe-O-Gal” value is reported as 177. For the same compound, on PA-IL [4], the “binding to PA-IL on microarray” value is listed as “high binding”.
